Laboratory results: the METLIN SMRT retention time set (Domingo-Almenara et al. 2019)

Test: gradient 5% acetonitrile 3 min, to 50% in 2 min, to 85% in 15 min, held 3 min, 100 µL/min
Conditions: column: Zorbax Extend-C18 2.1 x 50 mm; eluents: water / acetonitrile, 0.1% formic acid
In short: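 Each retention time is based on an adduct peak selected computationally and verified by manual inspection. Measurements used HPLC–quadrupole time-of-flight mass spectrometry in positive and negative ionization mode on mixtures of ~100 pure standards. Chromatography ran on a Zorbax Extend-C18 column (2.1 × 50 mm, 1.8 μm) at 100 μL/min with water and acetonitrile, each containing 0.1% formic acid, and dead and dwell volumes of 40 μL and 900 μL.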

Structure (SMILES) | RP-LC retention time [s]
CC(C)Oc1ccc(-c2noc(CN3N=NC4C(=O)N(c5cccc(Cl)c5)C(=O)C43)n2)cc1 (centres undefined) | 1040
O=C(Cc1ccc(F)cc1)N1CCN(c2nc(CN3CCOCC3)cs2)CC1 | 616
CN1C2CC(OC(=O)C(CO)c3ccccc3)CC1C1OC12 (centres undefined) | 640
O=C(NCc1cccnc1-c1ccc(F)cc1)c1ccc(F)cc1F | 690
O=C(Cn1c(=O)cc(-c2nc(C3CC3)no2)c2ccccc21)Nc1ccc(F)cc1 | 616
CCOc1ccc(-c2csc3c(=O)n(Cc4ccccn4)cnc23)cc1OCC | 865
Cc1ccccc1Nc1c(-c2cccc(O)c2)nc2cccc(C)n12 | 678
O=C(NCCCN1CCCCC1)C1CCCN(c2ncc(-c3ccc(F)cc3)cn2)C1 (centres undefined) | 684
O=C(NCCc1ccccc1)N1CCCC1c1nc(-c2cccc(Cl)c2)no1 (centres undefined) | 1050
CCN1C(=O)c2cccnc2Sc2cc(NC(=O)c3cccc(Cl)c3)ccc21 | 912
CCCNS(=O)(=O)c1cc(-c2nnc(-c3ccccc3)o2)ccc1F | 939
COc1cccc(-c2nc(C3CCN(S(=O)(=O)c4cccc(Cl)c4)CC3)no2)c1 | 1160
CN(CC1CCOCC1)C(=O)c1ccc(Br)cc1 | 761
O=C(CSc1ncnc2c1nnn2Cc1ccc(F)cc1)N1CCCC1 | 764
COc1ccc(CNC(=O)C2CCN(c3ccc(SCc4ccccc4)nn3)CC2)c(OC)c1 | 767
Cc1cnc(-c2cccnc2)n1C1CCN(S(=O)(=O)c2cccnc2)C1 (centres undefined) | 575
Cn1ncc2c(N3CCSCC3)nc(C(=O)NCc3ccc(C(F)(F)F)cc3)nc21 | 907
COc1ccc(OCC(=O)N2CCCC2c2nc(-c3ccc(OC)cc3)no2)cc1 (centres undefined) | 934
O=C(NCc1ccccc1F)c1cc(=O)n2c(nc3ccccc32)s1 | 876

Structure (SMILES) | RP-LC retention time [s]
CC1(C(=O)NCc2ccc(F)cc2)Cn2cnc(C(=O)NC3CCCCC3)c2C(=O)N1C1CC1 (centres undefined) | 765
COc1ccc(Cc2nc(-c3ccc4c(c3)nnn4CCC(=O)N3CCCC3)no2)cc1 | 839
CC(C)n1cc(C2=CCN(S(=O)(=O)Cc3cccc(Cl)c3)CC2)c2cccnc21 | 1130
CCCCN1C(=O)C(NC(=O)c2ccccc2OC)(C(F)(F)F)C(C(C)=O)=C1C (centres undefined) | 976
O=C(C1CCC1)N1CCCC1c1nc(C2CCOCC2)no1 (centres undefined) | 624
COc1cc(C2CC(=O)c3c([nH]c(C(=O)OC4CCCCC4)c3C)C2)cc(OC)c1OC (centres undefined) | 1090
O=C(O)c1cccc(-c2noc(-c3ccccc3F)n2)c1 | 964
CCc1noc(C2(NC(=O)C(CC)c3ccccc3)CCCCC2)n1 (centres undefined) | 1090
O=C(Nc1ccccc1F)N1CCC(N2C(=O)C3(CCCCC3)C2c2ccccc2)CC1 (centres undefined) | 940
Fc1ccc(-c2noc(Cc3nnc(-c4cccc(Br)c4)o3)n2)cc1 | 1120
CCc1onc(C)c1C1CCCN1C(=O)c1ccc(C)cc1 (centres undefined) | 775
Cc1ccc(-c2nc3ncccn3c2NCc2ccc(F)cc2)cc1 | 755
Fc1ccc(Cl)cc1-c1nnc(-c2ccc(-n3ccnc3)nc2)o1 | 681
Cn1nccc1-c1cccc(-c2noc(CNC(=O)c3ccco3)n2)c1 | 733
CSc1ccc(CNC(=O)Cn2c(=O)cc(-c3nc(C)no3)c3ccccc32)cc1 | 859
CCOc1ccc(S(=O)(=O)Nc2ccc(-c3cn4ccc(C)nc4n3)cc2)c(OCC)c1 | 691
CCOC(=O)C1=C(CN2CCN(c3ccccn3)CC2)NC(=O)NC1c1ccc(OC)cc1 (centres undefined) | 612
CC(C)CCNC(=O)c1ccc2c(=O)n(-c3ccccc3)c(N3CCCC3)nc2c1 | 858
COC(=O)c1ncn2c1C(=O)N(Cc1ccccc1)C(C)(C(=O)NC1CCCCC1)C2 (centres undefined) | 750

Structure (SMILES) | RP-LC retention time [s]
CCOCCCNC(=O)C1CCCN(c2ncc(-c3cccc(F)c3)cn2)C1 (centres undefined) | 902
COC(=O)c1[nH]c(C)c(C(=O)C(C)N(C(=O)c2ccc(C)cc2)C2CCCCC2)c1C (centres undefined) | 1050
COCc1c(C(=O)O)nnn1-c1ccc(OC)c(Cl)c1 | 706
CC(C(=O)N1CCN(c2ccccn2)CC1)n1c(=O)c(C(F)(F)F)nc2ccccc21 (centres undefined) | 696
Cc1nnc(-c2ccc(OCC(=O)N(C(C)C)C(C)C)cc2)o1 | 708
Cc1cc(-c2ccc(C)c(S(=O)(=O)Nc3ccc(Cl)cc3)c2)n[nH]1 | 898
CCOc1ccc(-c2nnc3ccc(SC(C(C)=O)C(=O)N(C)C)nn23)cc1 (centres undefined) | 665
CCOC1CCOC2(CCN(C(=O)c3ccco3)CC2)C1 (centres undefined) | 691
CC(C)CCNC(=O)Cn1nc2c3cc(-c4ccc(F)cc4)nn3ccn2c1=O | 876
N#Cc1cccc(CN2CCC3(CCC3O)CC2)c1 (centres undefined) | 565
COc1cc(NC(=O)CSc2ncc(-c3cccc(Cl)c3)o2)cc(OC)c1OC | 896
Cc1cc2c(cc1S(=O)(=O)N1CCCC1C(=O)N1CCc3ccccc31)OCC(=O)N2 (centres undefined) | 788
Cn1cc(CC(=O)NCc2ccc(F)c(Cl)c2)c2cccnc21 | 725
COc1cccc2c1C(=O)c1c(O)c3c(c(O)c1C2=O)C[C@@](O)(C(C)=O)C[C@@H]3OC1CC(N(C)C)C(O)C(C)O1 (some centres undefined) | 666
CCN1C(=O)c2cccnc2Sc2cc(CNC(=O)Cc3ccc(F)cc3)ccc21 | 761
O=C(Cn1c(=O)cc(-c2nc(C3CC3)no2)c2ccccc21)Nc1ccc2c(c1)OCO2 | 908
COc1ccc(S(=O)(=O)NCc2ccc3c(c2)CCN3C(=O)C(C)C)cc1OC | 803
Cc1cccc(C)c1Nc1c(-c2ccccc2)nc2cnccn12 | 865

Further lines, results first:

RP-LC retention time [s] | Structure (SMILES)
907 | O=C(NC1CCN(Cc2ccccc2)CC1)C1CCCN(c2cnc3nccnc3c2)C1 (centres undefined)
704 | CNC(=O)C1CCCN(c2nc3ncn(CC(=O)Nc4cccc(C(F)(F)F)c4)c(=O)c3s2)C1 (centres undefined)
805 | COc1cccc(Cn2c(=O)c3cnc(-c4ccncc4)nc3n(C)c2=O)c1
1120 | Cc1cc(NC(=O)C(=O)c2cccn2C)ccc1Br
949 | O=C(CN1C(=O)CC(c2ccccc2)=Nc2cccnc21)Nc1ccc(F)cc1F
777 | Cn1c(=O)sc2cc(S(=O)(=O)N3CCC(C(=O)NC4CCCC4)CC3)ccc21
745 | Cc1oc(C2CCN(C(=O)c3ccsc3)CC2)nc1C(=O)N1CCCCC1
631 | Cc1ccn(CC(=O)NC2CCN(c3ccc(=O)n(CC4CC4)n3)C2)n1 (centres undefined)
897 | Cc1nnc(SCC(=O)N2c3ccccc3CCc3ccccc32)s1
676 | CCn1c(=O)c(-c2noc(C(=O)N3CCN(c4ccccn4)CC3)n2)nn(-c2ccc(F)cc2)c1=O
825 | Cc1noc(C)c1CNC(=O)c1ccc(OC(F)(F)F)cc1
925 | CC(C)(C)NC(=O)Cc1cccn1-c1ccc(F)cc1
548 | COc1cccc(C(O)CN2CCN(C3CCCCC3)CC2)c1 (centres undefined)
627 | CC(=O)N1CCN(C(=O)c2cccn2CC(=O)N2CCc3ccccc32)CC1
687 | Cn1nc(COc2ccccc2)c2c1CCN(C(=O)c1ccccn1)C2
662 | COC(=O)c1cncc(C)c1
747 | CCSc1nnc(-c2nn(C)c3c2CN(C(=O)c2ccccc2Cl)CC3)n1C

RP-LC retention time [s] | Structure (SMILES)
762 | Cc1cc(Cl)ccc1S(=O)(=O)N1C[C@H](F)C[C@@H]1C(=O)N1CCOCC1
814 | Cc1ccc(C(=O)NCC(=O)Nc2cc(-c3nc(C)cs3)sc2C)cc1
778 | O=C(Cn1cc(-c2ccccc2)c2ncnc(N3CCOCC3)c21)NCc1ccc(Cl)cc1
847 | CCOc1ccc(S(=O)(=O)N2CCCC(C(=O)NCCCOC)C2)cc1C (centres undefined)
971 | Cc1ccccc1OCC(=O)N1CCc2cc(-c3ccno3)ccc21
658 | Cc1cc(C)cc(S(=O)(=O)Nc2ccc3nc(N4CCN(CCC#N)CC4)cc(C(=O)O)c3c2)c1
894 | CCC1=C(c2ccc(C)cc2)S(=O)(=O)N=C1N1CCC(C(=O)NC(C)Cc2ccco2)CC1 (centres undefined)
761 | CC(CCc1ccccc1)NC(=O)Cc1nnc(-c2ccc3ncccc3c2)o1 (centres undefined)
795 | CCOc1ccc2nc(Nc3ncc4c(n3)CC(c3cccs3)CC4=O)nc(C)c2c1 (centres undefined)
565 | O=C(CSc1ncc(CO)n1CC(=O)NC1CC1)Nc1ccc(F)cc1F
744 | CCC(=O)N1CCc2cc(C(=O)NC3CCCC3)ccc21
709 | CCCC(=O)Nc1ccc2c(c1)CN(C(=O)C1CC1)C(C(=O)N(C)C)C2 (centres undefined)
618 | CCCN(C)C(=O)c1ccc2nc(-c3ccccc3)cn2c1
878 | Cn1cc2c3c(cccc31)CN(C(=O)C1CCC1)CC2
1140 | Cc1ccc(S(=O)(=O)Cc2cccc(-c3nc(-c4cccc(-c5ccnn5C)c4)no3)c2)cc1
763 | COCCc1noc(-c2cnc3nc(C)ccc3c2Nc2cccc(Cl)c2)n1
